Converted amounts (≈) assume the structure as drawn.

For one test, the system named is S. pneumoniae ATCC 49619. As to the kind of experiment: Minimal inhibitory concentration (MIC) by broth microdilution (CLSI M7-A7). Format: cell-based, Streptococcus pneumoniae. The note with it: Streptococcus pneumoniae, ATCC49619; cation-adjusted Mueller Hinton Broth supplemented with 3% (v/v) lysed horse blood; microdilution method. The essentials:
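Broth microdilution per CLSI M7-A7 in cation-adjusted Mueller-Hinton broth with 3% (v/v) lysed horse blood for S. pneumoniae. MIC in mg/l.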
(In general: In broth dilution the organism is exposed to a series of concentrations in liquid medium.)
Regarding `CCNC(=O)Nc1cc2c(-c3ccncc3)ccc(CNC(=O)OCCCN3CCOCC3)c2cn1` [Example 110, [3-(3-ethyl-ureido)-5-pyridin-4-yl-isoquinolin-8-ylmethyl]-carbamic acid 3-morpholin-4-yl-propyl ester], the minimal inhibitory concentration (MIC) – broadly, the lowest concentration that inhibits growth of the organism – is 2 µg/mL (≈ 4.06 µM).
The same measure, in the same setting: to `CCNC(=O)Nc1cc2c(Cl)ccc(CNC(=O)OCCOC)c2cn1` [Example 111, [5-chloro-3-(3-ethyl-ureido)-isoquinolin-8-ylmethyl]-carbamic acid 2-methoxy-ethyl ester] belongs 0.5 µg/mL (≈ 1.31 µM); to `C#CCOC(=O)NCc1ccc(Cl)c2cc(NC(=O)NCC)ncc12` [Example 112, [5-chloro-3-(3-ethyl-ureido)-isoquinolin-8-ylmethyl]-carbamic acid prop-2-ynyl ester], 0.5 µg/mL (≈ 1.39 µM); to `CCNC(=O)Nc1cc2c(Cl)ccc(CNC(=O)OC(C)(C)C)c2cn1` [Example 113, [5-chloro-3-(3-ethyl-ureido)-isoquinolin-8-ylmethyl]-carbamic acid tert-butyl ester], 1 µg/mL (≈ 2.64 µM).
The same measure, in the same setting: to `CCNC(=O)Nc1cc2c(-c3ccncc3)ccc(CNC(=O)OCCOC)c2cn1` [Example 114, [3-(3-ethyl-ureido)-5-pyridin-4-yl-isoquinolin-8-ylmethyl]-carbamic acid 2-methoxy-ethyl ester] belongs 0.5 µg/mL (≈ 1.18 µM); to `CCNC(=O)Nc1cc2c(-c3ccnc(N)c3)ccc(CNC(=O)OCCOC)c2cn1` [Example 115, [5-(2-amino-pyridin-4-yl)-3-(3-ethyl-ureido)-isoquinolin-8-ylmethyl]-carbamic acid 2-methoxy-ethyl ester], 2 µg/mL (≈ 4.56 µM); to `CCNC(=O)Nc1cc2c(-c3cc(C)nc(C)c3)ccc(CNC(=O)OCCOC)c2cn1` [Example 116, [5-(2,6-dimethyl-pyridin-4-yl)-3-(3-ethyl-ureido)-isoquinolin-8-ylmethyl]-carbamic acid 2-methoxy-ethyl ester], 1 µg/mL (≈ 2.21 µM).
On the same count and under the same terms, next, `CCNC(=O)Nc1cc2c(-c3ccnc(OC)c3)ccc(CNC(=O)OCCOC)c2cn1` [Example 117, [3-(3-ethyl-ureido)-5-(2-methoxy-pyridin-4-yl)-isoquinolin-8-ylmethyl]-carbamic acid 2-methoxy-ethyl ester]: 1 µg/mL (≈ 2.21 µM).
Consider `CCNC(=O)Nc1cc2c(-c3ccnc(F)c3)ccc(CNC(=O)OCCOC)c2cn1` [Example 118, [3-(3-ethyl-ureido)-5-(2-fluoro-pyridin-4-yl)-isoquinolin-8-ylmethyl]-carbamic acid 2-methoxy-ethyl ester], for which the minimum inhibitory concentration (MIC) came to 0.5 µg/mL (≈ 1.13 µM).
For the molecule `CCNC(=O)Nc1cc2c(-c3ccnc(C)c3)ccc(CNC(=O)OCCOC)c2cn1` [Example 119, [3-(3-ethyl-ureido)-5-(2-methyl-pyridin-4-yl)-isoquinolin-8-ylmethyl]-carbamic acid 2-methoxy-ethyl ester], the lowest concentration to inhibit growth (MIC) was 0.5 µg/mL (≈ 1.14 µM).
Still for that read-out and setting: next, `CCNC(=O)Nc1cc2c(-c3ccnc(C#N)c3)ccc(CNC(=O)OCCOC)c2cn1` [Example 120, [5-(2-cyano-pyridin-4-yl)-3-(3-ethyl-ureido)-isoquinolin-8-ylmethyl]-carbamic acid 2-methoxy-ethyl ester]: 1 µg/mL (≈ 2.23 µM); `CCNC(=O)Nc1cc2c(-c3ccncc3C)ccc(CNC(=O)OCCOC)c2cn1` [Example 121, [3-(3-ethyl-ureido)-5-(3-methyl-pyridin-4-yl)-isoquinolin-8-ylmethyl]-carbamic acid 2-methoxy-ethyl ester]: 1 µg/mL (≈ 2.29 µM).
On the same count and under the same terms, next, `CCNC(=O)Nc1cc2c(-c3ccnc(CO)c3)ccc(CNC(=O)OCCOC)c2cn1` [Example 122, [3-(3-ethyl-ureido)-5-(2-hydroxymethyl-pyridin-4-yl)-isoquinolin-8-ylmethyl]-carbamic acid 2-methoxy-ethyl ester]: 4 µg/mL (≈ 8.82 µM); `CCNC(=O)Nc1cc2c(-c3ccnnc3)ccc(CNC(=O)OC(C)(C)C)c2cn1` [Example 124, [3-(3-ethyl-ureido)-5-pyridazin-4-yl-isoquinolin-8-ylmethyl]-carbamic acid tert-butyl ester]: 0.5 µg/mL (≈ 1.18 µM).
Same read-out and setting: to `C#CCOC(=O)NCc1ccc(-c2cccnc2)c2cc(NC(=O)NCC)ncc12.Cl` [Example 125, [3-(3-ethyl-ureido)-5-pyridin-3-yl-isoquinolin-8-ylmethyl]-carbamic acid prop-2-ynyl ester hydrochloride] belongs 1 µg/mL; to `C#CCOC(=O)NCc1ccc(-c2ccncc2C)c2cc(NC(=O)NCC)ncc12` [Example 126, [3-(3-ethyl-ureido)-5-(3-methyl-pyridin-4-yl)-isoquinolin-8-ylmethyl]-carbamic acid prop-2-ynyl ester], 1 µg/mL (≈ 2.4 µM); to `C#CCOC(=O)NCc1ccc(-c2ccnnc2)c2cc(NC(=O)NCC)ncc12` [Example 127, [3-(3-ethyl-ureido)-5-pyridazin-4-yl-isoquinolin-8-ylmethyl]-carbamic acid prop-2-ynyl ester], 8 µg/mL (≈ 19.8 µM).
In turn, `C#CCOC(=O)NCc1ccc(-c2ccnc(C#N)c2)c2cc(NC(=O)NCC)ncc12` [Example 128, [5-(2-cyano-pyridin-4-yl)-3-(3-ethyl-ureido)-isoquinolin-8-ylmethyl]-carbamic acid prop-2-ynyl ester] registered an MIC of 1 µg/mL (≈ 2.33 µM).
For the molecule `C#CC(=O)NCc1ccc(-c2ccnnc2)c2cc(NC(=O)NCC)ncc12` [Example 129, propynoic acid [3-(3-ethyl-ureido)-5-pyridazin-4-yl-isoquinolin-8-ylmethyl]-amide], the MIC turned out to be 0.5 µg/mL (≈ 1.34 µM).
Same read-out and setting: to `CCNC(=O)Nc1cc2c(-c3ccncc3)ccc(CNC(=O)CCC3CC3)c2cn1` [Example 130, 3-cyclopropyl-N-[3-(3-ethyl-ureido)-5-pyridin-4-yl-isoquinolin-8-ylmethyl]-propionamide] belongs 0.5 µg/mL (≈ 1.2 µM).
With `C#CCOC(=O)NCc1ccc(-c2ccc(N)nc2)c2cc(NC(=O)NCC)ncc12.Cl` [Example 131, [5-(6-amino-pyridin-3-yl)-3-(3-ethyl-ureido)-isoquinolin-8-ylmethyl]-carbamic acid prop-2-ynyl ester hydrochloride], 0.5 µg/mL was the least that counted as inhibitory (MIC).
Molecule `C#CCOC(=O)NCc1ccc(-c2cccc(CNC(C)=O)c2)c2cc(NC(=O)NCC)ncc12.Cl` [Example 132, {5-[3-(acetylamino-methyl)-phenyl]-3-(3-ethyl-ureido)-isoquinolin-8-ylmethyl}-carbamic acid prop-2-ynyl ester hydrochloride] came in with an MIC of 4 µg/mL.
On the same count and under the same terms, to `C#CCOC(=O)NCc1ccc(-c2cccc(O)c2)c2cc(NC(=O)NCC)ncc12.Cl` [Example 133, [3-(3-ethyl-ureido)-5-(3-hydroxy-phenyl)-isoquinolin-8-ylmethyl]-carbamic acid prop-2-ynyl ester hydrochloride] belongs 0.5 µg/mL; to `C#CCOC(=O)NCc1ccc(-c2cccc(CC(=O)O)c2)c2cc(NC(=O)NCC)ncc12.Cl` [Example 135, {3-[3-(3-ethyl-ureido)-8-(prop-2-ynyloxycarbonylamino-methyl)-isoquinolin-5-yl]-phenyl}-acetic acid hydrochloride], 4 µg/mL.

The test is the same for the next values; noted with them: cation-adjusted Mueller Hinton Broth supplemented with 3% (v/v) lysed horse blood; microdilution method.
Take `CCNC(=O)Nc1cc2c(-c3ccnc(CN4CCOCC4)c3)ccc(CNC(=O)OCCOC)c2cn1` [Example 123, {3-(3-ethyl-ureido)-5-[(2-morpholin-4-ylmethyl)-pyridin-4-yl]-isoquinolin-8-ylmethyl}-carbamic acid 2-methoxy-ethyl ester]: the “MIC for S. pneumoniae ATCC 49619” value stood at 8 µg/mL.

The values are drawn from patent US8889676B2, “3-ureidoisoquinolin-8-yl derivatives” (Actelion Pharmaceuticals Ltd., priority 2011, dated 2014).
